Source: patent US7745489B2, “Compositions and methods for inhibition of phospholipase A2 mediated inflammation” (The Regents of the University of California, priority 2002, dated 2010)
Several values for one entry are separate records, joined by “and”; a condition that tells them apart may be missing. Equal entries are not always repeated. Entries after “also recorded” stand apart in the source; their conditions may differ. Where two headings read alike, the source gives them in different places. Each block holds one molecule with its values, some of them ahead of it.

Assays:
[1] = tested on: formalin induced flinching; assay: Formalin induced flinching; assay type: in vivo, rat; conditions: intrathecal pretreatment 10 min; result in words
spontaneous movement = conditions: rat, in vivo
acetic acid writhing = assay: Acetic acid writhing test, analgesic activity; assay type: in vivo, rat
Experimental: The acetic acid writhing test was used to assess the analgesic activity in rats (reference drug sodium acetylsalicylate, at 1 mmol/kg, 93.4%). The inhibitors were given ip and 30 min later 1 mL/100 g body weight of 0.6% acetic acid was given ip.

P388D1 cells = assay: PGE2 release from stimulated P388D1 macrophages; assay type: cell-based, murine; conditions: for inhibition at 50 µM / IC50: Mus musculus; for inhibition at 50 µM: LPS 1 hour then PAF 15 min, maximal dosage tested 50 μM; for IC50: LPS 18 hr, inhibitor added 30 min prior to stimulation; for Block of PGE2 release: long-term LPS stimulation, 50 μM inhibitor, result in words
Experimental: cPLA2 and iPLA2 are expressed in macrophage cells. It was therefore of interest to determine if the PLA2 inhibitors of the invention acted on either or both of cPLA2 and iPLA2 in macrophages. To that end, P388D1 murine macrophages were maintained at 37° C. in a humidified 10% CO2 atmosphere. Cells were grown in Iscove's Modified Dulbecco's Medium (IMDM with 10% fetal calf serum (HyClone Labs, Provo Utah), 100 units/mL penicillin and 100 μg/mL streptomycin (Invitrogen, Carlsbad Calif.). Cells were routinely passaged every 2-3 days when the cells reached 75-80% confluence. Cells used for stimulation were plated at a density of 10^6 cells per well in standard 12 well tissue culture plates and were allowed to adhere overnight.
Macrophages were stimulated by treating P338D1 cells with either lipopolysaccharide (LPS) alone or LPS combined with platelet activating factor (PAF). Briefly, cells were washed twice with starvation media (IMDM containing 0.2% fetal calf serum, 100 units/mL penicillin and 100 μg/mL streptomycin) and then incubated with 1 mL of starvation media for one hour. Cells were then exposed to either 100 ng/mL LPS for 18 hours or 200 ng/mL LPS for one hour. Cells treated with 200 ng/mL LPS were then exposed to 100 nM PAF for 15 minutes. At the end of the stimulation, the media was removed from the cells, cleared of cellular debris by centrifugation and analyzed for prostaglandin E2 (PGE2) levels by enzyme-linked immunoassay (Cayman Chemical, Ann Arbor Mich.).
Inhibitor compounds were dissolved in DMSO and diluted into starvation media prior to addition to cells; the DMSO concentration was kept below 0.5% v/v in all studies. All inhibitors were added 30 minutes prior to stimulation.

cPLA2 = biological target: T1, cPLA2 (Homo sapiens, UniProt P47712); assay: cPLA2 activity on TX-100/PAPC mixed micelles, inhibition by 2-oxoamides; assay type: biochemical; conditions: for Inhibition of cPLA2: result in words
T1 sequence (P47712 1-749): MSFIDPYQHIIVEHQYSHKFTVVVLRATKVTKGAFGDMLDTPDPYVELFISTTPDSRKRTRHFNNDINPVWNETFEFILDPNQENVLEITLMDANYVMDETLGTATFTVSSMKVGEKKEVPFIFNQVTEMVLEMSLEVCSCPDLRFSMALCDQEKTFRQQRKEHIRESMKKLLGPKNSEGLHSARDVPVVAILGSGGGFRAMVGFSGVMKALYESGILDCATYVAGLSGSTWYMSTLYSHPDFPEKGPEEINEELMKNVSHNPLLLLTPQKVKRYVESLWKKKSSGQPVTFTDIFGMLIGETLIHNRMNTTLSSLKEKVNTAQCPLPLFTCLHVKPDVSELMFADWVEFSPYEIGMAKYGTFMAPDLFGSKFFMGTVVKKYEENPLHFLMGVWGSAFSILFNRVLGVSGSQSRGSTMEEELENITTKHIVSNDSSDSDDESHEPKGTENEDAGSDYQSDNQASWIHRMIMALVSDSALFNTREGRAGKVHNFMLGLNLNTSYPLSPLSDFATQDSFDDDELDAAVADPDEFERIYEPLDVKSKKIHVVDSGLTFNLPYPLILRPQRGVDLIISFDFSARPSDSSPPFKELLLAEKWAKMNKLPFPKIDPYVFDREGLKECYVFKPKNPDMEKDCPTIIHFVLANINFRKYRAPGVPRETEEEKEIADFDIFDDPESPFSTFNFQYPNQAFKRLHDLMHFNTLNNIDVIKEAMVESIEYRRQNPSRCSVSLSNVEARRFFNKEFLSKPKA

[2] = tested on: carrageenan-induced paw edema; assay: Rat carrageenan-induced paw edema assay, ip, acute inflammation; assay type: in vivo; conditions: after 3.5 h; for ED50: Rattus norvegicus, carrageenin paw edema test, ip
Experimental: The experiments were conducted on Fisher 344 female rats weighing 200-260 g. Acute anti-inflammatory activity was measured after 3.5 h by reduction of rat paw carrageenan edema, induced by injection of 0.1 mL carrageenan 2% (K100, commercially available) in sterilized saline intradermally into the right footpad. The examined compounds were administered intraperitoneally (ip) simultaneously. Control animals accepted only vehicle.

iPLA2 = biological target: T2, iPLA2 (Homo sapiens, UniProt O60733); assay: iPLA2 activity mixed micelle assay, inhibition by 2-oxoamides; assay type: biochemical
T2 sequence (O60733 1-806): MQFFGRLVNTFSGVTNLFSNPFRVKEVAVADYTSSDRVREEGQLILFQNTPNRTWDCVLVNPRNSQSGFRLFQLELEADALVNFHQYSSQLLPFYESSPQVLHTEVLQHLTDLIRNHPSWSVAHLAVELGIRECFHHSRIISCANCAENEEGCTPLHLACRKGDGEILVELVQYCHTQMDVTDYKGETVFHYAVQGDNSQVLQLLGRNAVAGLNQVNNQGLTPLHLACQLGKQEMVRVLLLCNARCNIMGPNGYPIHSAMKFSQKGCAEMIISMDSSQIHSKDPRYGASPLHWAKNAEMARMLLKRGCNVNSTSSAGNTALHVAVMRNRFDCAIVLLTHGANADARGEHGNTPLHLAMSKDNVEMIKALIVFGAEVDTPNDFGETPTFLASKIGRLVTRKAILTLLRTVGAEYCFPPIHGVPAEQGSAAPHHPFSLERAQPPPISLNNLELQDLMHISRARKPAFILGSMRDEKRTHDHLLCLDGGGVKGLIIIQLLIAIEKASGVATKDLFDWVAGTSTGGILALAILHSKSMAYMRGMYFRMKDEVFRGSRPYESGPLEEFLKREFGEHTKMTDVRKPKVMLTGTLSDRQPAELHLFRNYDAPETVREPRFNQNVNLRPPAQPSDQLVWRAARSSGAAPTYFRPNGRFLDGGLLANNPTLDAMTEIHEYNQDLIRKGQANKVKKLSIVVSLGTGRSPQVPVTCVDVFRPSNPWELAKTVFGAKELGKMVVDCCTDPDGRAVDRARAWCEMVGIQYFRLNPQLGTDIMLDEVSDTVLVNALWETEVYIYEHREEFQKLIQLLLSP
Description: All of the data above are provided with respect to XI(50), which is the mole fraction of inhibitor in the total substrate interface required to inhibit the enzyme by 50%. Almost all inhibitors of PLA2's partition into the phospholipid surface, because they usually have a hydrophobic nature that helps them bind to the active site of the PLA2. When these inhibitors partition into the surface, an important physical effect called surface dilution comes into play. In this case, the strength of the interaction of PLA2 and an inhibitor depends not on the bulk concentration of the inhibitor (molar units), but on the surface concentration of the inhibitor (mole fraction units).
PLA2 Activity Assays: Following homoginization and centrifugation, the spinal cord supernatants were assayed for cPLA2 or iPLA2 activity using the group specific assays developed in our laboratory (Yang et al., Biochem; 269: 278-288, 1999). Briefly the cPLA2 assay conditions were: 100 μM lipid PAPC/PIP2 (97/3) doping with 1% ^14C labeled PAPC in 400 μM triton X-100 mixed micelles, 100 mM Hepes, pH 7.5, 0.08 mM CaCl2, 0.1 mg/ml BSA and 2 mM DTT. iPLA2 assay conditions were: 100 μM DPPC doping with 1% ^14C labeled DPPC in 400 μM triton X-100 mixed micelles, 100 mM Hepes, pH 7.5, 5 mM EDTA, and 1 mM ATP. The total volume for each assay is 500 μL: 200 μL lipid, 250 μL assay buffer, 50 μL sample. In each case the amount of calcium or EDTA added was adjusted to account for the addition of EDTA in the lysis buffer to give the final concentrations listed above.
Lipid preparation: Lipid was dried under N2 and lyopholized for at least one hour to remove all traces of chloroform. Lipid was then resuspended in […] and triton X-100 and micelles were created by repeated vortexing and heating in hot water until the solution clarified. Samples were incubated with substrate for one hour at 40° C. The assay was then terminated and fatty acid extracted by the modified Dole assay. The amount of radioactive fatty acid released in the assay was determined by scintillation counting. Following analysis the data for the cPLA2 assay was adjusted for contaminating iPLA2 activity as described by Yang, et al. (Yang, et al., Anal. Biochem. 269: 278-288 (1999).

[3] = mixed micelles TX-100 400 μM, PAPC 97 μM, PIP2 3 μM (0.6 mole %)
[4] = Table 3, at 0.020 mole fraction

- Effect on spontaneous movement / normal motor function (spontaneous movement): did have such an effect
- Effect on spontaneous movement / normal motor function (spontaneous movement; 60 min): suppressed spontaneous movement
Compound: O=C1O/C(=C/Br)CCC1c1cccc2ccccc12 (stereo not shown) [BEL, bromoenol lactone]
- Effect on formalin induced flinching [1]: suppression

- IC50 (P388D1 cells): 7.8 µM
- XI(50) (mole fraction) (cPLA2; Table 2, iPLA2): 0.017 ± 0.009 mole fraction
- XI(50) (cPLA2; [3]): 0.017±0.009 mole fraction
Compound: CCCCCCCCCCCCCCC(=O)C(=O)NCCCC(=O)O [OA1, 4-[(2-oxohexadecanoyl)amino]butanoic acid]
- Analgesic activity (acetic acid writhing; ip dose of 0.01 mmol/kg): 92.7%
- inhibition at 50 µM (P388D1 cells): ~60%
- Block of PGE2 release (P388D1 cells): completely block
- ED50 [2]: 10 µmol/kg

- IC50 (P388D1 cells): 5.8 µM
- melting point: 50 to 52 °C
- XI(50) (mole fraction) (cPLA2; Table 2, iPLA2): 0.009 ± 0.004 mole fraction
- XI(50) (cPLA2; mixed micelles TX-100 3 mM, PAPC 1 mM, no PIP2 present): 0.0027±0.0012 mole fraction
- Inhibition of cPLA2 (cPLA2): quite potent
Compound: CCCCCCCCCCC(=O)C(=O)N[C@@H](CCCC)CCC(=O)O [OA4, (4S)-4-[(2-Oxododecanoyl)amino]octanoic acid]
- Analgesic activity (acetic acid writhing; ip dose of 0.1 mmol/kg): 63%
- inhibition at 50 µM (P388D1 cells): ~60%
- Block of PGE2 release (P388D1 cells): completely block
- XI(50) (cPLA2; [3]): 0.009±0.004 mole fraction and 0.009 mole fraction
- ED50 [2]: 100 µmol/kg

- XI(50) (mole fraction) (iPLA2; Table 3): 0.0158 ± .0009 mole fraction
Compound: CCC(=O)C(=O)NCCCC(=O)OC [OA19]
- Inhibition of cPLA2 (cPLA2): no inhibitory activity; also recorded: no measurable inhibition

- Highest Conc. (mole fraction) w/ % inhibition (iPLA2; Table 3, at 0.091 mole fraction): 0.091: 55% ± 4%
- Inhibition of cPLA2 (cPLA2): do not inhibit
Compound: COC(=O)CCCNC(=O)C(=O)CCCCc1ccccc1 [OA20]

- Highest Conc. (mole fraction) w/ % inhibition (iPLA2; [4]): 0.020: 38% ± 6%
Compound: CCC(=O)C(N)=O [OA21]

- Highest Conc. (mole fraction) w/ % inhibition (iPLA2; [4]): 0.020: 31% ± 6%
Compound: CCNC(=O)C(=O)CC [OA22]

- Highest Conc. (mole fraction) w/ % inhibition (iPLA2; [4]): 0.020: 43% ± 4%
Compound: CCC/C=C\CCNC(=O)C(=O)CC [OA23]

- Highest Conc. (mole fraction) w/ % inhibition (iPLA2; [4]): 0.020: 60% ± 6%
Compound: CCC/C=C\CCNC(=O)C(=O)CC [OA24]

- Highest Conc. (mole fraction) w/ % inhibition (cPLA2; Table 4, cPLA2, at 0.091 mole fraction): cPLA2: 0.091: 41% iPLA2: N/A
- Inhibition of cPLA2 (cPLA2): fairly poor inhibitor
Compound: CCC(=O)C(=O)N[C@H]1CCC(=O)OC1 [OA25]
- XI(50) (mole fraction) (iPLA2; Table 4): C PLA2: N.D. I PLA2: 0.0142 ± 0.0004 mole fraction

- XI(50) (mole fraction) (iPLA2; Table 4): 0.018 ± 0.002 mole fraction
- XI(50) (mole fraction) (cPLA2; Table 4, cPLA2): 0.028 ± 0.017 mole fraction
- Inhibition of cPLA2 (cPLA2): does
Compound: CCNC(=O)OC[C@H](CCC(=O)OC)NC(=O)C(=O)CC [OA26]

- Inhibition of cPLA2 (cPLA2): essentially no measurable inhibition
Compound: CCCCCCCCCCC(=O)C(=O)N[C@H](CCC(=O)O)COC(=O)NCC [OA32, 5-ethylcarbamoyloxy-4-(R)-(2-oxo-dodecanoylamino)-pentanoic Acid]

- Inhibition of cPLA2 (cPLA2): do not inhibit
Compound: COC(=O)CCCNC(=O)C(=O)CCCc1ccccc1 [OA34]

- Inhibition of cPLA2 (cPLA2): lack of inhibition
Compound: O=C(O)CCCNC(=O)C(=O)CCCCc1ccccc1 [OA35, 4-(2-Oxo-6-phenyl-hexanoylamino)-butyric Acid]

- Inhibition of cPLA2 (cPLA2): lack of inhibition
Compound: O=C(O)CCCNC(=O)C(=O)CCCc1ccccc1 [OA36, 4-(2-Oxo-5-phenyl-pentanoylamino)-butyric Acid]

Compound: COc1ccc2c(c1)c(CC(=O)O)c(C)n2C(=O)c1ccc(Cl)cc1 [indomethacin, reference compound]
- % inhibition of carrageenan paw edema ([2]; reference drug at 0.011 mmol/kg): 47%

Compound: CC(=O)Oc1ccccc1C(=O)[O-].[Na+] [sodium acetylsalicylate, reference compound]
- Analgesic activity (acetic acid writhing; reference drug at 1 mmol/kg): 93.4%
